Results published in US8193193B2, “Agent for prevention or treatment of glaucoma” (Kowa Co., Ltd., priority 2005, dated 2012).

Key:
IOP [1] = assay: Ocular hypotensive effect after instillation, alone or in combination, in rabbits (change from initial IOP); format: in vivo, Japanese white rabbits; settings: male JW rabbits, brinzolamide 1%, 50 μL; for persistence of ocular hypotensive action (FIG. 1): after 3 or 4 hours from instillation, 0.5% solution; for persistence of ocular hypotensive action (FIG. 2): after 4 and also 5 hours from instillation, 1.5% solution
Description: To examine usefulness of combination use of a Rho kinase inhibitor and a carbonic anhydrase inhibitor, the ocular hypotensive effects were compared by administering either of these drugs alone or both in combination to laboratory animals. (S)-(−)-1-(4-fluoro-5-isoquinolinesulfonyl)-2-methyl-1,4-homopiperazine-hydrochloride dihydrate was dissolved in physiological saline, and the solution was neutralized (pH 6.0) by adding sodium dihydrogenphosphate and sodium hydroxide to prepare a (S)-(−)-1-(4-fluoro-5-isoquinolinesulfonyl)-2-methyl-1,4-homopiperazine solution at a desired concentration. The commercially available “Eril® S Injection” (Asahi Kasei Pharma) was used as it was. The commercially available “Azopt® Ophthalmic Suspension 1%” (Alcon Japan Ltd.) was used as it was. The ocular hypotensive effect was examined after the combination use of (S)-(−)-1-(4-fluoro-5-isoquinolinesulfonyl)-2-methyl-1,4-homopiperazine and brinzolamide. As a control, the ocular hypotensive effect was also examined after the use of brinzolamide alone or (S)-(−)-1-(4-fluoro-5-isoquinolinesulfonyl)-2-methyl-1,4-homopiperazine alone. Similarly, the ocular hypotensive effect was examined after the combination use of hexahydro-1-(5-isoquinolinesulfonyl)-1H-1,4-diazepine and brinzolamide. As a control, the ocular hypotensive effect was also examined after the use of brinzolamide alone or hexahydro-1-(5-isoquinolinesulfonyl)-1H-1,4-diazepine alone. (S)-(−)-1-(4-fluoro-5-isoquinolinesulfonyl)-2-methyl-1,4-homopiperazine solution: 0.5% solution (instillation volume, 50 μL) Hexahydro-1-(5-isoquinolinesulfonyl)-1H-1,4-diazepine solution: fasudil hydrochloride hydrate injection (1.5% solution [trade name: Eril® S Injection]; instillation volume, 50 μL) Brinzolamide solution: brinzolamide ophthalmic solution ([trade name: Azopt® Ophthalmic Suspension 1%]; instillation volume, 50 μL) Laboratory animals: Japanese white rabbits (male JW rabbits, 5 animals per group) 1). One drop of 0.4% oxybuprocaine hydrochloride ophthalmic solution (trade name: Benoxil Ophthalmic Solution 0.4%) was instilled in both eyes of the laboratory animals for local anesthesia (only data for the instilled eyes are shown). 2) IOP was measured immediately before administration of the test compound solution as the initial IOP. 3) The brinzolamide solution was instilled in one eye of the laboratory animals, followed by the instillation of (S)-(−)-1-(4-fluoro-5-isoquinolinesulfonyl)-2-methyl-1,4-homopiperazine solution in the same eye. 4) At 1 hour, 2 hours, 3 hours, 4 hours, and 5 hours after the instillation of both drugs, one drop each of 0.4% oxybuprocaine hydrochloride ophthalmic solution was instilled in both eyes for local anesthesia, and IOP was measured. […]

IOP [2] = settings: rabbits with normal IOP, cited from earlier work

Row | Compound | persistence of ocular hypotensive action (FIG. 1) (IOP [1]) | time after instillation from which IOP is lowered (IOP [2]) [h] | maximum IOP reduction (IOP [2]; instillation, concentration of 0.1%) [mmHg] | persistence of ocular hypotensive action (FIG. 2) (IOP [1])
1 | C[C@H]1CNCCCN1S(=O)(=O)c1cccc2cncc(F)c12 [(S)-(−)-1-(4-fluoro-5-isoquinolinesulfonyl)-2-methyl-1,4-homopiperazine] | ocular hypotensive effect disappeared |  |  | 
2 | C[C@@H](N)c1ccc(C(=O)Nc2ccnc3[nH]ccc23)cc1 [Y-39983, 4-[(1R)-1-aminoethyl]-N-1H-pyrrolo[2,3-b]pyridin-4-ylbenzamide] |  | 1 | 15 | 
3 | CCN[C@H]1CN(CCCOC)S(=O)(=O)c2sc(S(N)(=O)=O)cc21 [brinzolamide] | ocular hypotensive effect disappeared |  |  | ocular hypotensive effect disappeared
4 | O=S(=O)(c1cccc2cnccc12)N1CCCNCC1 [hexahydro-1-(5-isoquinolinesulfonyl)-1H-1,4-diazepine] |  |  |  | ocular hypotensive effect disappeared
